Measurements published in patent US20070154449A1, “TIGHT JUNCTION MODULATING PEPTIDES FOR ENHANCED MUCOSAL DELIVERY OF THERAPEUTIC COMPOUNDS” (Nastech Pharmaceutical Company Inc., priority 2005, published 2007).

What was measured:
[1] = test system: human-derived tracheal/bronchial epithelial cells (EpiAirway™ Tissue model system); experiment: FITC-Dextran (FD3) permeation assay, EpiAirway tissue model; format: cell-based; conditions: 25 μM peptide, 1 h at 37° C.
Method: A FITC labeled dextran with a molecular weight 3000 (FD3) was used to assess the efficacy of individual TJMP on epithelial cell monolayer permeation. The tissue insert plates were transferred to a 96-well receiver plate containing 200 μl of DPBS++ as basal media. The apical surface of each tissue culture insert was incubated with a 20 μl sample of a single test formulation (refer to Table 4 in Example 2 for details of test formulations) for one hour at 37° C. in the dark on a shaker (˜100 rpm). Following the 1 hour incubation period, underlying basal media samples were taken from each tissue culture insert and temporarily stored in the dark at room temperature until FD3 levels were quantified by fluorescence spectroscopy. For FD3 measurements, a 150 μl of basal media sample was transferred to a black, clear bottom 96-well plate. Fluorescence emission at 528/20 following excitation at 485/20 were measured using a FLx800 fluorescence plate reader from Biotek Instruments.
Permeation was calculated as: [formula] [formula] Formula terms for permeation defined: […]
Of the total 300 μl volume for each test formulation, only a 20 μl sample was applied to the human-derived tracheal/bronchial epithelial cells (EpiAirway™ Tissue model system) in order to assess the effect each test formulation had on TER, LDH and sample permeation.

[2] = Intranasal PYY pharmacokinetics in rabbits with PN159 or small molecule enhancers (Example 5); format: in vivo, New Zealand White rabbits; conditions: for PYY plasma concentration: mean of 4 rabbits; for AUCINF (Mean) / AUClast (Mean) / Cmax (Mean) / Tmax (Mean) / t½ (Mean): PYY in plasma, rabbit; for Relative AUC last / Relative Cmax: PYY, rabbit intranasal
Method: Twenty male New Zealand White rabbits age 3-6 months and weighing 2.1-3.0 kg were randomly assigned into one of 5 treatment groups with four animals per group. Test animals were dosed at 15 μl/kg and intranasally via pipette. Table 6 below indicates the composition of five different dose groups.
For dosing group 1 (see Table 6) a clinical formulation of PYY including small molecule permeation enhancers was used. The small molecule enhancers in these studies included methyl-β-cyclodextrin, phosphatidylcholine didecanoyl (DDPC), and/or EDTA. Dosing group 2 received PYY dissolved in phosphate buffered saline (PBS). For dosing groups 3-5, various concentrations of PN159 were added to dosing group 2, so that each of dosing groups 3 to 5 consisted of PYY, PN159, and PBS.
Serial blood samples (about 2 ml each) were collected by direct venipuncture from a marginal ear vein into blood collection tubes containing EDTA as an anticoagulant. Blood samples were collected at 0, 2.5, 5, 10, 15, 30, 45, 60, and 120 minutes post-dosing. After collection of the blood, the tubes were gently rocked several times for anti-coagulation, and then 50 μl aprotinin solution was added. The blood was centrifuged at approximately 1,600×g for 15 minutes at approximately 4° C., and plasma samples were dispensed into duplicate aliquots and stored frozen at approximately −70° C.

[3] = Chemical stability of PN159 in solution (stability indicating HPLC); format: physicochemical; conditions: for loss of native PN159: 25° C.
Method: The chemical stability of the PN159 was determined under therapeutically relevant storage conditions. A stability indicating HPLC method was employed. Solutions (50 mM) were stored at various pH (4.0, 7.3, and 9.0) and temperature (5° C., 25° C., 35° C., 40° C., and 50° C.) conditions. Samples at pH 4 contained 10 mM citrate buffer. Samples at pH 7.3 and 9.0 contained 10 mM phosphate buffer. […] For example, at 5° C. and pH 4.0 or pH 7.3, there was essentially 100% recovery of PN159 for six month storage. […] The pH range of 4.0 to 7.3 and the temperature range of refrigerated to ambient are most relevant for intranasal formulations.

[4] = Intranasal PYY(3-36) pharmacokinetics in rabbits with various TJMPs (Example 10); format: in vivo, New Zealand White rabbits; conditions: rabbit
From the text: The tubes were chilled until […].

[5] = test system: in vitro epithelial tissue model; experiment: Cell viability (MTT assay), in vitro epithelial tissue model; conditions: galantamine lactate 40 mg/ml and PN159 at all concentrations tested (25, 50, 100 μM)
[6] = Group 3: PYY 205 μg/kg intranasal with 25 μM PN159
[7] = Group 4: PYY 205 μg/kg intranasal with 50 μM PN159
[8] = Group 5: PYY 205 μg/kg intranasal with 100 μM PN159
[9] = Group 3 (PN159, 25 μm) compared with Group 2 (no enhancer)
[10] = Group 4 (PN159, 50 μm) compared with Group 2 (no enhancer)
[11] = Group 5 (PN159, 100 μm) compared with Group 2 (no enhancer)
[12] = PYY(3-36) in plasma, 205 μg/kg intranasal with the named TJMP (concentration per Table 11, 50-1000 μM) or PBS, mean

Structure (SMILES): CC(C)C[C@H](NC(=O)[C@H](C)NC(=O)[C@H](CCCCN)NC(=O)[C@H](CC(C)C)NC(=O)[C@H](C)NC(=O)[C@H](CC(C)C)NC(=O)[C@H](CCCCN)NC(=O)[C@H](CC(C)C)NC(=O)[C@H](C)NC(=O)[C@H](CC(C)C)NC(=O)[C@@H](N)CCCCN)C(=O)N[C@@H](CCCCN)C(=O)N[C@@H](C)C(=O)N[C@@H](C)C(=O)N[C@@H](CC(C)C)C(=O)N[C@@H](CCCCN)C(=O)N[C@@H](CC(C)C)C(=O)N[C@@H](C)C(N)=O [PN159]
- % FD3 Permeation [1]: 8%
- PYY plasma concentration ([2]; Group 3: PYY 205 μg/kg intranasal with 25 μM PN159, 0 min): 228.675
- PYY plasma concentration ([2]; Group 3: PYY 205 μg/kg intranasal with 25 μM PN159, 2.5 min): 526.375
- PYY plasma concentration ([2]; Group 3: PYY 205 μg/kg intranasal with 25 μM PN159, 5 min): 1430.15
- PYY plasma concentration ([2]; Group 3: PYY 205 μg/kg intranasal with 25 μM PN159, 10 min): 6521.7
- PYY plasma concentration ([2]; Group 3: PYY 205 μg/kg intranasal with 25 μM PN159, 15 min): 12563.075
- PYY plasma concentration ([2]; Group 3: PYY 205 μg/kg intranasal with 25 μM PN159, 30 min): 15222.6
- PYY plasma concentration ([2]; Group 3: PYY 205 μg/kg intranasal with 25 μM PN159, 45 min): 9081.125
- PYY plasma concentration ([2]; Group 3: PYY 205 μg/kg intranasal with 25 μM PN159, 60 min): 4843.15
- PYY plasma concentration ([2]; Group 3: PYY 205 μg/kg intranasal with 25 μM PN159, 120 min): 1224.2
- PYY plasma concentration ([2]; Group 4: PYY 205 μg/kg intranasal with 50 μM PN159, 0 min): 424.4
- PYY plasma concentration ([2]; Group 4: PYY 205 μg/kg intranasal with 50 μM PN159, 2.5 min): 749.975
- PYY plasma concentration ([2]; Group 4: PYY 205 μg/kg intranasal with 50 μM PN159, 5 min): 1293.4
- PYY plasma concentration ([2]; Group 4: PYY 205 μg/kg intranasal with 50 μM PN159, 10 min): 12517.2
- PYY plasma concentration ([2]; Group 4: PYY 205 μg/kg intranasal with 50 μM PN159, 15 min): 34455.3
- PYY plasma concentration ([2]; Group 4: PYY 205 μg/kg intranasal with 50 μM PN159, 30 min): 35294.375
- PYY plasma concentration ([2]; Group 4: PYY 205 μg/kg intranasal with 50 μM PN159, 45 min): 21582.225
- PYY plasma concentration ([2]; Group 4: PYY 205 μg/kg intranasal with 50 μM PN159, 60 min): 9461.925
- PYY plasma concentration ([2]; Group 4: PYY 205 μg/kg intranasal with 50 μM PN159, 120 min): 2337.775
- PYY plasma concentration ([2]; Group 5: PYY 205 μg/kg intranasal with 100 μM PN159, 0 min): 294.225
- PYY plasma concentration ([2]; Group 5: PYY 205 μg/kg intranasal with 100 μM PN159, 2.5 min): 1748.225
- PYY plasma concentration ([2]; Group 5: PYY 205 μg/kg intranasal with 100 μM PN159, 5 min): 3088.2
- PYY plasma concentration ([2]; Group 5: PYY 205 μg/kg intranasal with 100 μM PN159, 10 min): 14486.6
- PYY plasma concentration ([2]; Group 5: PYY 205 μg/kg intranasal with 100 μM PN159, 15 min): 20882.725
- PYY plasma concentration ([2]; Group 5: PYY 205 μg/kg intranasal with 100 μM PN159, 30 min): 25470.475
- PYY plasma concentration ([2]; Group 5: PYY 205 μg/kg intranasal with 100 μM PN159, 45 min): 16499.55
- PYY plasma concentration ([2]; Group 5: PYY 205 μg/kg intranasal with 100 μM PN159, 60 min): 10676.625
- PYY plasma concentration ([2]; Group 5: PYY 205 μg/kg intranasal with 100 μM PN159, 120 min): 1891.275
- AUCINF (Mean) [2, 6]: 796354.7 pg·min/mL
- AUClast (Mean) [2, 6]: 748104.1 pg·min/mL
- Cmax (Mean) [2, 6]: 15.53395 ng/mL
- Tmax (Mean) [2, 6]: 22.5 min
- t½ (Mean) [2, 6]: 24.8467 min
- AUCINF (Mean) [2, 7]: 1787348 pg·min/mL
- AUClast (Mean) [2, 7]: 1692499 pg·min/mL
- Cmax (Mean) [2, 7]: 40.99553 ng/mL
- Tmax (Mean) [2, 7]: 26.25 min
- t½ (Mean) [2, 7]: 25.5355 min
- AUCINF (Mean) [2, 8]: 1518949 pg·min/mL
- AUClast (Mean) [2, 8]: 1384241 pg·min/mL
- Cmax (Mean) [2, 8]: 27.9744 ng/mL
- Tmax (Mean) [2, 8]: 33.75 min
- t½ (Mean) [2, 8]: 20.4628 min
- Relative AUC last [2, 9]: 21×
- Relative Cmax [2, 9]: 30×
- Relative AUC last [2, 10]: 46×
- Relative Cmax [2, 10]: 79×
- Relative AUC last [2, 11]: 38×
- Relative Cmax [2, 11]: 54×
- loss of native PN159 ([3]; pH 4, after six months): 7%
- loss of native PN159 ([3]; pH 7, after six months): 26%
- chemical stability of PN159 ([3]; pH 9 and/or elevated temperature, e.g., 40 to 50° C.): rapid deterioration
- In Vivo Tier Ranking ([4]; PYY(3-36) 205 μg/kg intranasal, TJMP concentration per Table 11: PN159 50 μM, PN161, PN202 100 μM, PN27 250 μM, PN58, PN73, PN228 500 μM, PN183, PN556 1000 μM): I
- AUCinf [4, 12]: 1.55e+06 pg·min/mL
- AUClast [4, 12]: 1.52e+06 pg·min/mL
- Cmax [4, 12]: 30.2 ng/mL
- T1/2 [4, 12]: 30.2 min
- Tmax [4, 12]: 17.0a min
- Cell viability (MTT) [5]: > 80%
